# Assay results: US12297295B2, “Peptide for treating cancer” (Saint Leo University, priority 2019, dated 2025)
# Read-outs that look alike come from different tables or passages of the source. Where no end group is shown, it is not given here.
# What was measured:
# [1] = tested on: BT-549 breast cancer cells; conditions: for effect on viability of BT-549 breast cancer cells: two doubling times, CCK-8; for IC50: 96 h
# Method: The effect of Peptides 7M and 7MM on BT-549 breast cancer cells (ATCC #HTB-122) was studied. Pierce Protein Transfection reagent (Thermo Scientific, 89850) was used to deliver peptide to the cultured cells. BT-549 breast cancer cells were transfected with 0.625-20 μM Peptide 7M or 1.25-10 μM Peptide 7MM for 3.5 hrs, incubated in a complete media for a duration of two doubling times (96 hours), and assessed for viability by using a CCK-8 colorimetric assay.
# (§1) IC50 values were calculated from obtained equations that describe cell viability as a function of peptide concentration.
# cancer cells = assay: Viability of cancer cells, summary statement; type: cell-based
# CMG helicase [2] = molecular target: T1, CMG helicase (Xenopus laevis, UniProt Q91876); assay: S phase arrested Xenopus egg extracts, chromatin RPA Western blot as readout for DNA helicase activity; type: biochemical; conditions: 250 μM peptide, 90 min incubation
# T1 construct: from tissue; host or cells: S phase arrested Xenopus egg extracts (endogenous proteins on chromatin)
# Method: The peptide of SEQ ID NO: 1 was synthesized using solid-phase synthesis. The product was purified using HPLC to a purity of about 99%. 250 μM of peptide Ex7 ([…]) (SEQ ID NO: 8), peptide 7N (circularized—KGEVLQMEDDLV) (SEQ ID NO: 9), peptide 7M (ISFQLMLCVLDYF) (SEQ ID NO: 1), or peptide 7C (IKLSPPMLLKEPYK) (SEQ ID NO: 10) were incubated in S phase arrested Xenopus egg extracts. Following a 90 min incubation, chromatin was isolated and probed by Western blotting for RPA protein as a readout for DNA helicase activity. Additionally, peptide 7MN (ISFQLML) (SEQ ID NO: 5), peptide 7MM (QLMLCVL) (SEQ ID NO: 2), and peptide 7MC (LCVLDYF) (SEQ ID NO: 6) were tested.
# 250 μM of each of peptides 7α (DLVISFQLMLCVLDYFIK) (SEQ ID NO: 14), 7α-ln (LVISFQLMLCVLDYFIK) (SEQ ID NO: 22), 7α-2n (VISFQLMLCVLDYFIK) (SEQ ID NO: 23), 7α-3n (ISFQLMLCVLDYFIK) (SEQ ID NO: 24), 7α-4n (SFQLMLCVLDYFIK) (SEQ ID NO: 25), 7α-5n (FQLMLCVLDYFIK) (SEQ ID NO: 26), 7α-6n (QLMLCVLDYFIK) (SEQ ID NO: 27), 7α-7n (LMLCVLDYFIK) (SEQ ID NO: 28), 7α-17c (DLVISFQLMLCVLDYF) (SEQ ID NO: 29), 7α-16c (DLVISFQLMLCVLDY) (SEQ ID NO: 30), 7α-15c (DVISFQLMLCVLD) (SEQ ID NO: 31), 7α-14c (DVISFQLMLCVL) (SEQ ID NO: 32), 7α-11c (DVISFQLML) (SEQ ID NO: 33) was incubated in S phase arrested Xenopus egg extracts. Following a 90 min incubation, chromatin was isolated and probed by Western blotting for RPA protein as a readout for DNA helicase activity.
# CMG helicase [3] = molecular target: T1, CMG helicase; assay: as above; type: biochemical; conditions: extended from the above and other findings; no test described
# [4] = tested on: M059J glioma cancer cells; conditions: for IC50: 48 h
# Method: (§2) Pierce Protein Transfection reagent (Thermo Scientific, 89850) was used to deliver peptide to the cultured cells.
# M059J glioma cancer cells (ATCC #CRL-2366) were transfected with 1.25-10 μM peptide 7α for 3.5 hrs, incubated in a complete media for a duration of two doubling times, and assessed for viability by using a CCK-8 colorimetric assay (Dojindo Molecular Technologies, Inc.).
# M059J glioma cancer cells (ATCC #CRL-2366) were transfected with 1.25-10 μM peptide 7MM for 3.5 hrs, incubated in a complete media for a duration of two doubling times, and assessed for viability by using a CCK-8 colorimetric assay (Dojindo Molecular Technologies, Inc.).
# as §1
# [5] = tested on: SVG p12 immortalized astroglia cells
# Method: as §1
# [6] = tested on: PANC-1 pancreatic cancer cells; conditions: 48 h
# Method: The effect of Peptides 7M and 7MM on PANC-1 pancreatic cancer cells (ATCC #CRL-1469) was studied. Pierce Protein Transfection reagent (Thermo Scientific, 89850) was used to deliver peptide to the cultured cells. PANC-1 pancreatic cancer cells were transfected with 0.625-10 μM Peptide 7M or Peptide 7MM for 3.5 hrs, incubated in a complete media for a duration of two doubling times (48 hours), and assessed for viability by using a CCK-8 colorimetric assay.
# The effect of peptide 7α of viability of pancreatic cancer cells was studied. PANC-1 pancreatic cancer cells (ATCC #CRL-1469) were transfected with 1.25-10 μM peptide 7α for 3.5 hrs, incubated in a complete media for a duration of two doubling times, and assessed for viability by using a CCK-8 colorimetric assay (Dojindo Molecular Technologies, Inc.).
# as §1
# HepG2 liver cancer cells = conditions: 96 h
# Method: as §2, §1
# [7] = tested on: HT1080 fibrosarcoma cancer cells
# Method: as §1
# [8] = tested on: DU145 prostate cancer cells
# Method: DU145 prostate cancer cells (ATCC #HTB-81) were transfected with 1.25-10 μM peptide 7α for 3.5 hrs, incubated in a complete media for a duration of two doubling times, and assessed for viability by using a CCK-8 colorimetric assay (Dojindo Molecular Technologies, Inc.).
# DU145 prostate cancer cells (ATCC #HTB-81) were transfected with 1.25-10 μM peptide 7MM for 3.5 hrs, incubated in a complete media for a duration of two doubling times, and assessed for viability by using a CCK-8 colorimetric assay (Dojindo Molecular Technologies, Inc.).
# as §1
# [9] = tested on: U-2 OS osteosarcoma cancer cells
# Method: as §1
# [10] = tested on: PC3 prostate cancer cells
# Method: The effect of peptide 7α of viability of prostate cancer cells was studied. PC3 prostate cancer cells (ATCC #CRL-1435) were transfected with 1.25-10 μM peptide 7α for 3.5 hrs, incubated in a complete media for a duration of two doubling times, and assessed for viability by using a CCK-8 colorimetric assay (Dojindo Molecular Technologies, Inc.).
# The effect of peptide 7MM of viability of prostate cancer cells was studied. PC3 prostate cancer cells (ATCC #CRL-1435) were transfected with 1.25-10 μM peptide 7MM for 3.5 hrs, incubated in a complete media for a duration of two doubling times, and assessed for viability by using a CCK-8 colorimetric assay (Dojindo Molecular Technologies, Inc.).
# as §1
# [11] = tested on: hTERT-HPNE immortalized normal pancreatic cells
# Method: as §1
# [12] = tested on: HCT-116 colorectal cancer cells
# Method: The effect of peptide 7MM of viability of colorectal cancer cells was studied. HCT-116 colorectal cancer cells (ATCC #CCL-247) were transfected with 1.25-10 μM peptide 7MM for 3.5 hrs, incubated in a complete media for a duration of two doubling times, and assessed for viability by using a CCK-8 colorimetric assay (Dojindo Molecular Technologies, Inc.).
# as §1
# [13] = tested on: Hs 766T pancreatic cancer cells
# Method: as §1
# [14] = tested on: THLE-3 immortalized normal liver cells
# Method: as §1
# [15] = tested on: HLF normal primary lung fibroblasts
# Method: The effect of peptide 7α of viability of HLF normal primary lung fibroblasts was studied. HLF normal primary lung fibroblasts (ATCC #PCS-201-013) were transfected with 1.25-10 μM peptide 7α for 3.5 hrs, incubated in a complete media for a duration of two doubling times, and assessed for viability by using a CCK-8 colorimetric assay (Dojindo Molecular Technologies, Inc.).
# The effect of peptide 7MM of viability of normal lung cells was studied. HLF normal primary lung fibroblasts (ATCC #PC S-201-013) were transfected with 1.25-10 μM peptide 7MM for 3.5 hrs, incubated in a complete media for a duration of two doubling times, and assessed for viability by using a CCK-8 colorimetric assay (Dojindo Molecular Technologies, Inc.).
# as §1
# [16] = tested on: HMEC primary mammary epithelial normal cells
# Method: HMEC mammary epithelial cells (ATCC #PCS-600-010) were transfected with 1.25-20 μM peptide 7α for 3.5 hrs, incubated in a complete media for a duration of two doubling times, and assessed for viability by using a CCK-8 colorimetric assay (Dojindo Molecular Technologies, Inc.).
# HMEC primary normal epithelial breast cells (ATCC #PCS-600-010) were transfected with 1.25-10 μM peptide 7MM for 3.5 hrs, incubated in a complete media for a duration of two doubling times, and assessed for viability by using a CCK-8 colorimetric assay (Dojindo Molecular Technologies, Inc.).
# as §1
# [17] = transfected 1.25-10 μM for 3.5 hrs
# [18] = conclusion drawn from Examples 39, 41, 42 and FIGS. 42, 44, 45
# [19] = transfected 2.5 and 5.0 μM for 3.5 hrs
# [20] = extended from the above and other findings, no test described
# [21] = transfected 1.25-10 μM for 3.5 hrs, two doubling times, CCK-8
# Method for A549 lung cancer cells: as §1
# Method for H596 lung cancer cells: as §1
substance,measurement,setting,value
DLVISFALMLCVLDYFIK [7α-Q7A],effect on viability of BT-549 breast cancer cells,[1]; [17],inhibit viability of breast cancer cells
DLVISFQGMLCVLDYFIK [7α-L8G],effect on viability of BT-549 breast cancer cells,[1]; [17],inhibit viability of breast cancer cells
DLVISFQLMLCVLDY (listed as Homo sapiens) [7α-16c],effect on viability of cancer cells,cancer cells; [18],decrease viability of cancer cells
same,inhibition of CMG helicase in vitro (chromatin RPA Western blot),CMG helicase [2],inhibit CMG helicase in vitro
DLVISFQLMLCVLDYF (listed as Homo sapiens) [7α-17c],effect on viability of cancer cells,cancer cells; [18],decrease viability of cancer cells
same,inhibition of CMG helicase in vitro (chromatin RPA Western blot),CMG helicase [2],inhibit CMG helicase in vitro
DVISFQLML (DLVISFQLML; listed as Homo sapiens) [7α-11c],effect on viability of cancer cells,cancer cells; [18],decrease viability of cancer cells
same,effect on viability of BT-549 breast cancer cells,[1]; [19],decrease viability
same,inhibition of CMG helicase in vitro (chromatin RPA Western blot),CMG helicase [2],inhibit CMG helicase in vitro
DVISFQLMLCVL (DLVISFQLMLCVL; listed as Homo sapiens) [7α-14c],effect on viability of cancer cells,cancer cells; [18],decrease viability of cancer cells
same,effect on viability of BT-549 breast cancer cells,[1]; [19],decrease viability
same,inhibition of CMG helicase in vitro (chromatin RPA Western blot),CMG helicase [2],inhibit CMG helicase in vitro
DVISFQLMLCVLD (DLVISFQLMLCVLD; listed as Homo sapiens) [7α-15c],effect on viability of cancer cells,cancer cells; [18],decrease viability of cancer cells
same,effect on viability of BT-549 breast cancer cells,[1]; [19],decrease viability
same,inhibition of CMG helicase in vitro (chromatin RPA Western blot),CMG helicase [2],inhibit CMG helicase in vitro
FQLMLCVLDYFIK (listed as Homo sapiens) [7α-5n],effect on viability of cancer cells,cancer cells; [18],decrease viability of cancer cells
same,inhibition of CMG helicase in vitro (chromatin RPA Western blot),CMG helicase [2],inhibit CMG helicase in vitro
GMLCVL [7MM6-G2],inhibition of CMG helicase,CMG helicase [3],inhibit CMG helicase
same,effect on viability of cancer cells,cancer cells; [20],decrease viability of cancer cells
GMLCVLD [7MM6-G2-D],inhibition of CMG helicase,CMG helicase [3],inhibit CMG helicase
same,effect on viability of cancer cells,cancer cells; [20],decrease viability of cancer cells
"ISFQLMLCVLDYF [7M, ISFQLMLCVLDYF]",IC50,[4],6.8 µM
same,IC50,[5],109 µM
same,IC50,[1],6.6 µM
same,IC50,[6],7.4 µM
same,IC50,HepG2 liver cancer cells,10 µM
ISFQLMLCVLDYFIK (listed as Homo sapiens) [7α-3n],effect on viability of cancer cells,cancer cells; [18],decrease viability of cancer cells
same,inhibition of CMG helicase in vitro (chromatin RPA Western blot),CMG helicase [2],inhibit CMG helicase in vitro
LMGCVL [7MM6-G4],inhibition of CMG helicase,CMG helicase [3],inhibit CMG helicase
same,effect on viability of cancer cells,cancer cells; [20],decrease viability of cancer cells
LMGCVLD [7MM6-G4-D],inhibition of CMG helicase,CMG helicase [3],inhibit CMG helicase
same,effect on viability of cancer cells,cancer cells; [20],decrease viability of cancer cells
LMLCVL [7MM6],inhibition of CMG helicase,CMG helicase [3],inhibit CMG helicase
same,effect on viability of cancer cells,cancer cells; [20],decrease viability of cancer cells
LMLCVLD [7MM6-D],inhibition of CMG helicase,CMG helicase [3],inhibit CMG helicase
same,effect on viability of cancer cells,cancer cells; [20],decrease viability of cancer cells
LMLCVLDYFIK (listed as Homo sapiens) [7α-7n],effect on viability of cancer cells,cancer cells; [18],decrease viability of cancer cells
same,effect on viability of BT-549 breast cancer cells,[1]; [19],decrease viability
same,inhibition of CMG helicase in vitro (chromatin RPA Western blot),CMG helicase [2],inhibit CMG helicase in vitro
LVISFQLMLCVLDYFIK (listed as Homo sapiens) [7α-1n],effect on viability of cancer cells,cancer cells; [18],decrease viability of cancer cells
same,inhibition of CMG helicase in vitro (chromatin RPA Western blot),CMG helicase [2],inhibit CMG helicase in vitro
QGMLCVL [7MM-G2],inhibition of CMG helicase,CMG helicase [3],inhibit CMG helicase
same,effect on viability of cancer cells,cancer cells; [20],decrease viability of cancer cells
QLMGCVL [7MM-G4],inhibition of CMG helicase,CMG helicase [3],inhibit CMG helicase
same,effect on viability of cancer cells,cancer cells; [20],decrease viability of cancer cells
"QLMLCVL [7MM, QLMLCVL]",IC50,[4],7.7 µM
same,effect on viability of M059J glioma cells,[4]; [21],decreases viability
same,IC50,[5],60.4 µM
same,effect on viability of SVG p12 normal glial cells,[5]; [21],does not affect viability
same,IC50,[7],9.7 µM
same,effect on viability of HT1080 fibrosarcoma cancer cells,[7]; [21],decreases viability
same,IC50,[8],10.6 µM
same,effect on viability of DU145 prostate cancer cells,[8]; [21],decreases viability
same,IC50,[9],9.6 µM
same,effect on viability of U-2 OS osteosarcoma cancer cells,[9]; [21],decreases viability
same,IC50,[10],13 µM
same,effect on viability of PC3 prostate cancer cells,[10]; [21],decreases viability
same,IC50,[11],79.9 µM
same,effect on viability of hTERT-HPNE normal pancreatic cells,[11]; [21],does not affect viability
same,IC50,[12],4.9 µM
same,effect on viability of HCT-116 colorectal cancer cells,[12]; [21],decreases viability
same,IC50,[13],5.7 µM
same,effect on viability of Hs 766T pancreatic cancer cells,[13]; [21],decreases viability
same,IC50,H596 lung cancer cells,7.6 µM
same,effect on viability of H596 lung cancer cells,H596 lung cancer cells; [21],decreases viability
same,IC50,[14],100 µM
same,effect on viability of THLE-3 normal liver cells,[14]; [21],does not affect viability
same,IC50,[15],110 µM
same,effect on viability of HLF normal primary lung fibroblasts,[15]; [21],does not affect viability
same,IC50,[16],77.5 µM
same,effect on viability of HMEC normal breast cells,[16]; [21],does not affect viability
same,IC50,[1],6.8 µM
same,IC50,[6],10.1 µM
same,IC50,A549 lung cancer cells,15.6 µM
same,effect on viability of A549 lung cancer cells,A549 lung cancer cells; [21],decreases viability
same,IC50,HepG2 liver cancer cells,14.2 µM
QLMLCVLD [7MM-D],inhibition of CMG helicase,CMG helicase [3],inhibit CMG helicase
same,effect on viability of cancer cells,cancer cells; [20],decrease viability of cancer cells
QLMLCVLDYFIK (listed as Homo sapiens) [7α-6n],effect on viability of cancer cells,cancer cells; [18],decrease viability of cancer cells
same,effect on viability of BT-549 breast cancer cells,[1]; [19],decrease viability
same,inhibition of CMG helicase in vitro (chromatin RPA Western blot),CMG helicase [2],inhibit CMG helicase in vitro
SFQLMLCVLDYFIK (listed as Homo sapiens) [7α-4n],effect on viability of cancer cells,cancer cells; [18],decrease viability of cancer cells
same,inhibition of CMG helicase in vitro (chromatin RPA Western blot),CMG helicase [2],inhibit CMG helicase in vitro
VISFQLMLCVLDYFIK (listed as Homo sapiens) [7α-2n],effect on viability of cancer cells,cancer cells; [18],decrease viability of cancer cells
same,inhibition of CMG helicase in vitro (chromatin RPA Western blot),CMG helicase [2],inhibit CMG helicase in vitro
